# Measured values from US7199114B2, “Triterpene quaternary salts as biologically active surfactants” (The Regents of the University of Minnesota, priority 2002, dated 2007).
# Key:
# [1] = test system: dollar spot fungus (Agrostis stolonifera); assay: Turf plot trial at Clemson University (Example 85), area affected by dollar spot; type: in vivo; conditions: 50 grams active ingredient per 1000 square feet
# Protocol: (§1) Plots of creeping bentgrass, cv. “Pennlinks,” were treated with water based sprays of the test compounds. Sprays were delivered by CO2-charged sprayer to deliver the equivalent of 2 gallons of spray per 1000 sq. ft of plot area. Plots were 15 sq. ft. each, and treatments were mixed to apply material to 75 sq. ft (5 replicates), although only 4 replicates were treated. […] Daconil Ultrex® was applied at 3.2 oz./1000 sq. ft. for 14 days. The experiment used a randomized complete block design, with 4 replicates per treatment. Disease pressure was high. Pennlinks […] is moderately to highly susceptible to both dollar spot and brown patch. For brown patch, caused by Rhozoctonia sofani. a visual estimate of the percent of the plot area affected was recorded. Turf quality was estimated on a 1 to 9 scale, with 1 being worst and 9 being perfect. A rating of 6 is considered acceptable.
# (§2) Plots of creeping bentgrass, cv. Pennlinks, were treated with water-based sprays as in Example 84 at Clemson University. Treatment application dates were May 7. May 14, May 28, and June 11. Plots were rated visually, estimating the percent of the area affected by dollar spot fungus […]. Turf quality was rated on a 1 to 9 scale, with 9 being perfect turf, as in Example 84. Disease pressure was moderately high to high when the trial was initiated, with existing dollar spot present.
# [2] = Turf plot trial at Clemson University (Example 85), turf quality; type: in vivo, creeping bentgrass, cv. Pennlinks; conditions: 1 to 9 scale, 50 grams active ingredient per 1000 square feet
# Protocol: as §1, §2
# [3] = test system: dollar spot; assay: Antifungal treatment on turf grass plots (Example 84), dollar spot count; type: in vivo; conditions: 17.8 g/1000 sq. ft. (Daconil Ultrex 3.2 oz./1000 sq. ft.)
# Protocol: (§3) Plots of creeping bentgrass, cv. “Pennlinks,” were treated with water based sprays of the test compounds. Sprays were delivered by CO2-charged sprayer to deliver the equivalent of 2 gallons of spray per 1000 sq. ft of plot area. Plots were 15 sq. ft. each, and treatments were mixed to apply material to 75 sq. ft (5 replicates), although only 4 replicates were treated. The quaternary salts of triterpenes were applied at 17.8 g/1000 sq. ft. for 14 days. Daconil Ultrex® was applied at 3.2 oz./1000 sq. ft. for 14 days. The experiment used a randomized complete block design, with 4 replicates per treatment. Disease pressure was high. Pennlinks […] is moderately to highly susceptible to both dollar spot and brown patch. For brown patch, caused by Rhozoctonia sofani. a visual estimate of the percent of the plot area affected was recorded. Turf quality was estimated on a 1 to 9 scale, with 1 being worst and 9 being perfect. A rating of 6 is considered acceptable.
# [4] = test system: brown patch, caused by Rhozoctonia sofani; assay: Antifungal treatment on turf grass plots (Example 84), brown patch; type: in vivo; conditions: 17.8 g/1000 sq. ft. (Daconil Ultrex 3.2 oz./1000 sq. ft.)
# Protocol: as §3
# [5] = Antifungal treatment on turf grass plots (Example 84), turf quality; type: in vivo, creeping bentgrass, cv. Pennlinks; conditions: 1 to 9 scale, 9 perfect, 17.8 g/1000 sq. ft. (Daconil Ultrex 3.2 oz./1000 sq. ft.)
# Protocol: as §3
# [6] = Table 2 experiment, Jul. 2, 2001
# [7] = Table 2 experiment, Jul. 16, 2001
# [8] = Table 2 experiment, Jun. 25, 2001
# [9] = Table 3 experiment, Jul. 2, 2001
# [10] = Table 3 experiment, Jul. 9, 2001
# [11] = Table 3 experiment, Jul. 16, 2001
# [12] = Table 3 experiment, Jun. 25, 2001
# [13] = Table 2 experiment, Jul. 9, 2001
Structure (SMILES),"Dollar Spot # of spots per plot [3, 6] [spots per plot]","Dollar Spot # of spots per plot [3, 7] [spots per plot]","Dollar Spot # of spots per plot [3, 8] [spots per plot]","Dollar Spot # of spots per plot [3, 9]","Dollar Spot # of spots per plot [3, 10] [spots per plot]","Dollar Spot # of spots per plot [3, 11] [spots per plot]","Dollar Spot # of spots per plot [3, 12] [spots per plot]","Brown Patch % of plot infected [4, 6] [%]","Brown Patch % of plot infected [4, 13] [%]","Brown Patch % of plot infected [4, 7] [%]","Brown Patch % of plot infected [4, 8] [%]","Brown Patch % of plot infected [4, 9] [%]","Brown Patch % of plot infected [4, 10]","Brown Patch % of plot infected [4, 11] [%]","Brown Patch % of plot infected [4, 12] [%]","Turf quality [5, 6]","Turf quality [5, 13]","Turf quality [5, 7]","Turf quality [5, 8]","Turf quality [5, 9]",also measured
C=C(C)[C@@H]1CC[C@]2(CO)CC[C@]3(C)C(CCC4[C@@]5(C)CC[C@H](OC(=O)C[N+](C)(C)CCCCCCCCCCCCCC)C(C)(C)C5CC[C@]43C)C12.[Cl-] (some centres unmarked) [Compound 56],,,,,,,,,,,,,,,,,,,,,"% of area infected ([1]; Table 5 c2, Jun. 3, 2002): 22.0 a %; % of area infected ([1]; Table 5 c4, Jun. 3, 2002): 19.3 ab %; % of area infected ([1]; Table 6, May 8, 2002): 31.0 a %; % of area infected ([1]; Table 6, May 13, 2002): 26.5 a %; % of area infected ([1]; Table 6, May 20, 2002): 32.0 bc %; % of area infected ([1]; Table 6, May 27, 2002): 21.8 cd %; Turf quality ([2]; Table 5, Jun. 3, 2002): 5.30 ab; Turf quality ([2]; Table 5, Jun. 17, 2002): 5.38 ab; Turf quality ([2]; Table 5, May 27, 2002): 4.47 ab; Turf quality ([2]; Table 6, May 8, 2002): 3.13 a; Turf quality ([2]; Table 6, May 13, 2002): 3.00 a; Turf quality ([2]; Table 6, May 20, 2002): 3.03 ab"
"C=C(C)[C@@H]1CC[C@]2(COC(=O)C[N+](C)(C)CCN(C)C)CC[C@]3(C)C(CCC4[C@@]5(C)CC[C@H](OC(=O)C[N+](C)(C)CCN(C)C)C(C)(C)C5CC[C@]43C)C12.[Cl-].[Cl-] (some centres unmarked) [Compound 7, Lup-20(29)-ene-3,28-bis[(tetramethylethylenediamine-N-yl)acetate] dichloride]",22.3,2.3,18.3,21.5 spots per plot,14.5,2.0,14.8,20.5,20.0,3.8,24.5,25.5,significantly suppress brown patch,8.8,17.5,4.25,4.50,5.60,4.50,4.50,"Brown Patch % of plot infected ([4]; Table 3 experiment, Jul. 9, 2001, listed as Comp. 7): 10.8%; Turf quality [5, 10]: 5.88; Turf quality [5, 12]: 4.36"
"C=C(C)[C@@H]1CC[C@]2(COC(=O)CC[n+]3ccccc3)CC[C@]3(C)C(CCC4[C@@]5(C)CC[C@H](OC(=O)CC[n+]6ccccc6)C(C)(C)C5CC[C@]43C)C12.[Cl-].[Cl-] (some centres unmarked) [Compound 14, Lup-20 (29)-ene-3,28-bis (N-pyridinium-3-propionate) dichloride]",21.8,3.5,22.3,20.8 spots per plot,14.5,2.8,16.3,36.8,25.0,5.0,25.8,31.3,16.5%,7.5,16.3,4.25,4.63,5.60,4.38,4.75,"Turf quality [5, 10]: 5.00; Turf quality [5, 12]: 4.88"
"C=C(C)[C@@H]1CC[C@]2(COC(=O)C[n+]3ccccc3)CC[C@]3(C)C(CCC4[C@@]5(C)CC[C@H](OC(=O)C[n+]6ccccc6)C(C)(C)C5CC[C@]43C)C12.[Cl-].[Cl-] (some centres unmarked) [Compound 1, Lup-20(29)-ene3,28-bis-(N-pyridiniumacetate) dichloride]",22.3,2.8,21.0,suppressed dollar spot,13.0,1.5,11.5,35.0,13.8,3.8,18.8,24.0,20.5%,8.6,15.8,4.50,6.00,5.57,4.50,4.50,"Dollar Spot # of spots per plot ([3]; Table 3 experiment, Jul. 2, 2001, listed as Comp. 1): 15.8 spots per plot; Turf quality [5, 10]: 5.38; Turf quality [5, 12]: 4.88"
